Data on 1 compound can be found in publication PMC7470027, “Synthesis and structure-activity relationships of novel 5-(hydroxamic acid)methyl oxazolidinone derivatives as 5-lipoxygenase inhibitors” (Journal of Enzyme Inhibition and Medicinal Chemistry, 2020).

What all share (type): cell-based
Series [1] relates to 5-LO-dependent generation of LTB4 from activated human whole blood. As to the kind of experiment: Inhibition of 5-LO product LTB4 from activated human whole blood (LPS/FMLP). To be noted: LPS-primed, FMLP-stimulated human whole blood; 95% confidence interval in brackets; read-out: Human whole blood LTB4 IC50 (CI). On the procedure: All compounds were evaluated for inhibitory activity against the 5-LO-dependent generation of LTB4 from activated human whole blood. With ethical approval from the Health Sciences Centre Ethical Committee of Kuwait University, heparinised fresh human blood samples from apparently healthy individuals of both sexes were obtained from the Kuwait Central Blood Bank. All donors gave informed consent and the work was carried out in accordance with the “Declaration of Helsinki” for experiments involving human subjects. Aliquots of 185 µl of whole blood were dispensed into each well of a 96-well culture plate containing 5 µl of the priming agent, LPS (1 µg/ml final concentration). […] After further incubation for 15 min at 37 °C, 5 µl of FMLP (1 µM final concentration) was added to stimulate LT production. The reaction was stopped 15 min later, and the supernatants were recovered by centrifugation and stored at −40 °C pending analysis of LTB4 content.
(§1) Appropriately diluted supernatants were assayed for the released products – LTs (LTB4 and LTC4), by the enzyme immunoassay (EIA) method using assay kits supplied by R&D Systems (Minneapolis, MN) and following the manufacturer’s instructions.
(§2) All data were analysed using GraphPad Prism software (GraphPad Software, San Diego, CA). […] Differences between experimental groups were first analysed by one-way ANOVA, followed by Bonferroni’s post-hoc test. A p-value of less than 0.05 was taken as statistically significant.

In the next series the test system is isolated human monocytes. As to the kind of experiment: In vitro toxicity testing, MTT viability. Particulars: concentrations up to 50 μM, 3 h or 24 h. The procedure:
Adherent human monocytes, prepared as described above were cultured with various concentrations of the test compounds or vehicle, or with 0.05% Triton-X as a positive control for 3 h or 24 h. At the end of the culture, cell viability was determined using the standard MTT assay method. Briefly, 15 μL of the MTT solution (5 mg/ml) was added to each well and incubated at 37 °C for 4 h. After removing the supernatant, 200 μL of DMSO was added to dissolve the crystals. Absorbance at 570 nm was then measured in a microplate reader. Viability was expressed as a percentage of the vehicle-treated cells.

Series [2] relates to 5-LO product LTC4 from isolated human monocytes. As to the kind of experiment: Inhibition of 5-LO product LTC4 from isolated human monocytes (A23187). Particulars: Monocyte, calcium ionophore A23187, 95% confidence interval in brackets, read-out: Human monocyte LTC4 IC50 (CI). The procedure:
Mononuclear cells were first isolated from heparinised blood using the Ficoll-Hypaque gradient centrifugation method. Monocytes were subsequently purified by adherence to plastic according to standard protocols. The purity of the adherent monocytes (CD14+) was routinely confirmed by flow cytometry to be >95% and viability (by trypan blue exclusion method) was routinely >97%. Adherent monocytes were then washed and incubated in 190 µl culture medium RPMI-1640 supplemented with 100 U/ml penicillin, 100 µg/ml streptomycin and 10% heat-inactivated foetal bovine serum (Sigma-Aldrich, St Louis, MO). […] After further incubation for 15 min, the culture supernatants were recovered by centrifugation and stored at −40 °C pending LTC4 determination.
as §1, §2

In the case of `CCCCCCC(=O)N(O)C[C@H]1CN(c2ccc(N3CCOCC3)c(F)c2)C(=O)O1` [PH-249, (R)-N-((3-(3-fluoro-4-morpholinophenyl)-2-oxooxazolidin-5-yl)methyl)-N-hydroxyheptanamide], the IC50 was 700 nM in series [1] and 900 nM in series [2]. Moreover, the “Effect on viability of isolated human monocytes (MTT)” value in the series with isolated human monocytes is “no significant effect on cell viability”.
